According to patent US9975878B2, “Substituted triazine BMI-1 inhibitors” (PTC Therapeutics, Inc., priority 2013, dated 2018):

tested on: Bmi-1 protein; assay: Sandwich ELISA Assay: Bmi-1 protein level in HT-1080 cells treated with test compounds; assay type: cell-based
Outline: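 HT-1080 cells exposed to compounds (final DMSO 0.5%) for 40-48 h at 37° C, 5% CO2, then lysed. Bmi-1 quantified by sandwich ELISA (mouse anti-Bmi-1 capture, rabbit anti-Bmi-1 detection, HRP anti-rabbit, TMB), read at OD450 with OD570 reference, against recombinant GST-Bmi-1 standard curve (0-8000 pg/mL).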

| Structure (SMILES) | EC50 [nM] |
| --- | --- |
| CCc1nc2ccccc2n1-c1cnnc(Nc2ccc(OC)cc2)n1 [Cpd 205, 5-(2-ethyl-1H-benzimidazol-1-yl)-N-(4-methoxyphenyl)-1,2,4-triazin-3-amine] | 1 to 10 |
| Cc1nc2ccccc2n1-c1nc(N)nc(Nc2ccc(Br)cc2)n1 [Cpd 206, N-(4-bromophenyl)-6-(2-methyl-1H-benzimidazol-1-yl)-1,3,5-triazine-2,4-diamine] | 1 to 10 |
| CCc1nc2ccccc2n1-c1nc(N)nc(Nc2ccc(Br)cc2)n1 [Cpd 207, N-(4-bromophenyl)-6-(2-ethyl-1H-benzimidazol-1-yl)-1,3,5-triazine-2,4-diamine] | 1 to 10 |
| Cc1nc2c(F)cc(F)cc2n1-c1nc(N)nc(Nc2ccc(Br)cc2)n1 [Cpd 208, N-(4-bromophenyl)-6-(4,6-difluoro-2-methyl-1H-benzimidazol-1-yl)-1,3,5-triazine-2,4-diamine] | 10 to 100 |
| CCc1nc2c(F)cc(F)cc2n1-c1nc(N)nc(Nc2ccc(Br)cc2)n1 [Cpd 209, N-(4-bromophenyl)-6-(2-ethyl-4,6-difluoro-1H-benzimidazol-1-yl)-1,3,5-triazine-2,4-diamine] | 1 to 10 |
| Cc1nc2cc(F)c(F)cc2n1-c1nc(N)nc(Nc2ccc(Br)cc2)n1 [Cpd 210, N-(4-bromophenyl)-6-(5,6-difluoro-2-methyl-1H-benzimidazol-1-yl)-1,3,5-triazine-2,4-diamine] | 10 to 100 |
| Cc1nc2ccc(F)cc2n1-c1nc(N)nc(Nc2ccc(Br)cc2)n1 [Cpd 211, N-(4-bromophenyl)-6-(6-fluoro-2-methyl-1H-benzimidazol-1-yl)-1,3,5-triazine-2,4-diamine] | 10 to 100 |
| CCc1nc2c(F)cccc2n1-c1nc(N)nc(Nc2ccc(OC)cc2)n1 [Cpd 212, 6-(2-ethyl-4-fluoro-1H-benzimidazol-1-yl)-N-(4-methoxyphenyl)-1,3,5-triazine-2,4-diamine] | 1 to 10 |
| CCc1nc2c(F)cccc2n1-c1nc(N)nc(Nc2ccc(C)cc2)n1 [Cpd 213, 6-(2-ethyl-4-fluoro-1H-benzimidazol-1-yl)-N-(4-methylphenyl)-1,3,5-triazine-2,4-diamine] | 1 to 10 |
| CCc1nc2c(F)cccc2n1-c1nc(N)nc(Nc2ccc(Cl)cc2)n1 [Cpd 214, N-(4-chlorophenyl)-6-(2-ethyl-4-fluoro-1H-benzimidazol-1-yl)-1,3,5-triazine-2,4-diamine] | 10 to 100 |
| CCc1nc2c(F)cccc2n1-c1nc(N)nc(Nc2ccc(Cl)c(F)c2)n1 [Cpd 215, N-(4-chloro-3-fluorophenyl)-6-(2-ethyl-4-fluoro-1H-benzimidazol-1-yl)-1,3,5-triazine-2,4-diamine] | 10 to 100 |
| CCc1nc2c(F)cccc2n1-c1nc(N)nc(Nc2ccc(Br)cc2)n1 [Cpd 216, N-(4-bromophenyl)-6-(2-ethyl-4-fluoro-1H-benzimidazol-1-yl)-1,3,5-triazine-2,4-diamine] | 1 to 10 |
| Cc1ccc(Nc2nncc(-n3c(C)nc4ccccc43)n2)cc1 [Cpd 217, 5-(2-methyl-1H-benzimidazol-1-yl)-N-(4-methylphenyl)-1,2,4-triazin-3-amine] | 1 to 10 |
| CCc1nc2ccccc2n1-c1cnnc(Nc2ccc(C)cc2)n1 [Cpd 218, 5-(2-ethyl-1H-benzimidazol-1-yl)-N-(4-methylphenyl)-1,2,4-triazin-3-amine] | 1 to 10 |
| Cc1nc2c(F)cccc2n1-c1nc(N)nc(Nc2ccc(Br)cc2)n1 [Cpd 219, N-(4-bromophenyl)-6-(4-fluoro-2-methyl-1H-benzimidazol-1-yl)-1,3,5-triazine-2,4-diamine] | 10 to 100 |
| Nc1nc(Nc2ccc(Br)cc2)nc(-n2c(C3CC3)nc3c(F)cccc32)n1 [Cpd 220, N-(4-bromophenyl)-6-(2-cyclopropyl-4-fluoro-1H-benzimidazol-1-yl)-1,3,5-triazine-2,4-diamine] | 10 to 100 |
| CCc1nc2cc(F)ccc2n1-c1nc(N)nc(Nc2ccc(Br)cc2)n1 [Cpd 221, N-(4-bromophenyl)-6-(2-ethyl-5-fluoro-1H-benzimidazol-1-yl)-1,3,5-triazine-2,4-diamine] | 10 to 100 |
